This is an account of results in PMC7793009 (ACS infectious diseases, 2020).

The test system of one data set is p62-induced ARE activity. Description: cells. It is filed as cell-based. To be noted: read-out: ARE/p62 IC50.
Data set [1] deals with ARE activity induced by over-expression of Nrf2. Description: cells. The format is cell-based. To be noted: for pIC50: read-out: ARE/Nrf2 IC50.
The test system of data set [2] is tBHQ-induced ARE activity. Description: cells. It is filed as cell-based. The settings on record: read-out: ARE/GFP/tBHQ IC50.
For data set [3], the target named is constitutively expressed firefly luciferase (ce-FF) (Photinus pyralis, UniProt P08659). Description: cell-based. The format is cell-based.
The subject of a further data set is NF-κB. Description: cells. The settings on record: read-out: NF-κB IC50. The format is cell-based.
Another data set has as its system HEK293T cells. To be noted: 24 h, ATP content (CellTiter-Glo).
Data set [4] has as its system mVP24-induced ARE activity. Description: siRNA. It is filed as cell-based. To be noted: two p53 siRNAs vs scramble, mVP24/ARE HEK293T, 24 h treatment.
In the next data set the test system is endogenous Nrf2. The format is cell-based.
Another data set can be described thus: in vitro. To be noted: human.
The subject of data set [5] is mVP24-induced ARE activity. Description: ARE/mVP24 firefly luciferase reporter assay. The format is cell-based. The settings on record: plateau around 1 μM of compound.
Another data set concerns Flag-tagged mVP24. It is filed as cell-based, Marburg virus.

pIC50: −log10 of the molar value. Like-named read-outs stand apart in the source and are kept apart here.

constitutively expressed firefly luciferase (ce-FF), sequence (P08659 whole entry): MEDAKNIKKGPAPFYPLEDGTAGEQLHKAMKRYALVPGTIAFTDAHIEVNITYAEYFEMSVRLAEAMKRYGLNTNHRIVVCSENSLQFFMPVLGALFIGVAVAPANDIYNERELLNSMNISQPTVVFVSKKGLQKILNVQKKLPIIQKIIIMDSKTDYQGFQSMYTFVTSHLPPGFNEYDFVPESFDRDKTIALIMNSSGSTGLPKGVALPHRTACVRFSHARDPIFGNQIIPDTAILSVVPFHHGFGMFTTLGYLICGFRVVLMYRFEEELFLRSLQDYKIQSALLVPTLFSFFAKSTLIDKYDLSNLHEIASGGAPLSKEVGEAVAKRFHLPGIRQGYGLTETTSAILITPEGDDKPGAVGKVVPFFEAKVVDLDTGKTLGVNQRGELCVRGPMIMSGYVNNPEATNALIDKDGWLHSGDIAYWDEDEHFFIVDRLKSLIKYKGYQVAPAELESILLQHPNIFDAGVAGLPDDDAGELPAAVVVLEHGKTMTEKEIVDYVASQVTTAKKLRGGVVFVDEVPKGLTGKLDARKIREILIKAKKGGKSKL

Regarding `Nc1ncnc2c1c(I)cn2[C@@H]1O[C@H](CO)[C@@H](O)[C@H]1O` [5-iodotubercidin], the pIC50 was 7.24 in the data set with p62-induced ARE activity; 5.92 in [1]; 6.70 in data set [2]; 4.82 in data set [3] (read-out: Ce-FF IC50); 5.19 in the data set with NF-κB. In the data set with HEK293T cells, this compound came in with a CC50 greater than 50 µM.
As to `O=C(N[C@@H]1CCCc2c1[nH]c1ccc(Cl)cc21)c1ccccn1` [GSK983], in [4], the “effect of p53 knockdown on inhibition of mVP24-induced ARE activity” value is recorded as “did not result in a reversal of inhibition”. The “Nrf2 expression relative to DMSO control” value with endogenous Nrf2 was “decreased”.
Regarding `COc1cc([C@@H]2c3cc4c(cc3[C@H](O)[C@H]3COC(=O)[C@H]23)OCO4)cc(OC)c1OC` [Podophyllotoxin, podophyllotoxin], in “in vitro”, the CC50 at 24 h is greater than 50 µM. In addition, the pIC50 with p62-induced ARE activity (Homo sapiens, HEK-293T, 24 h) was 5.51; in data set [1] (Homo sapiens, HEK-293T, 24 h) it was less than 4.30; in data set [2] (Homo sapiens, HEK-293T, 24 h), 7.59; in [3], less than 4.30; with NF-κB (Homo sapiens, HEK-293T, 6 h), less than 4.30. Besides, the “plateau of inhibitory activity against mVP24-induced ARE activity” value in data set [5] is “approximately 80%”. In addition, in data set [1] (ARE/Nrf2 assay), the “inhibition of ARE activity following over-expression of Nrf2 (in words)” value is reported as “did not inhibit”. Also, in the data set on Flag-tagged mVP24, the “mVP24 expression relative to DMSO control” value is on record as “affected”. For the same compound, the “Nrf2 expression relative to DMSO control” value with endogenous Nrf2 (ARE/mVP24 HEK293T cells, 1 and 5 μM, 24 h, western blot) is given as “affected”.
